For this assay, the system named is BDF1 mice, P388 leukemia ip, median survival T/C. Kind of assay: NCI In Vivo Anticancer Drug Screen. Data for tumor model P388 Leukemia (intraperitoneal) in B6D2F1 (BDF1) mice. Conditions: endpoint: median survival time, higher = longer survival. In outline: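 Steps: implant the tumour, treat one group with compound and another with vehicle, record survival, then divide treated by control.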

Setting [1] is: dose: 50.0 mg/kg/injection, schedule: Q04DX003 (ip), vehicle: saline.
Where [2] appears, read: dose: 100.0 mg/kg/injection, schedule: Q04DX003 (ip), vehicle: saline.
Where [3] appears, read: dose: 50.0 mg/kg/injection, schedule: Q01DX009 (ip), vehicle: saline with Tween-80.
[4] abbreviates: dose: 100.0 mg/kg/injection, schedule: Q01DX009 (ip), vehicle: saline with Tween-80.
The mark [5] stands for this setting: dose: 200.0 mg/kg/injection, schedule: Q01DX009 (ip), vehicle: saline with Tween-80.
The mark [6] stands for this setting: dose: 100.0 mg/kg/injection, schedule: Q01DX001 (ip), vehicle: saline with Tween-80.
The mark [7] stands for this setting: dose: 200.0 mg/kg/injection, schedule: Q01DX001 (ip), vehicle: saline with Tween-80.
The mark [8] stands for this setting: dose: 25.0 mg/kg/injection, schedule: Q01DX009 (ip), vehicle: saline with Tween-80.
Setting [9] is: dose: 100.0 mg/kg/injection, schedule: Q01DX009 (ip), vehicle: Klucel (hydroxypropylcellulose) (HPC).
Setting [10] is: dose: 200.0 mg/kg/injection, schedule: Q01DX009 (ip), vehicle: Klucel (hydroxypropylcellulose) (HPC).
Where [11] appears, read: dose: 100.0 mg/kg/injection, schedule: Q04DX003 (ip), vehicle: Klucel (hydroxypropylcellulose) (HPC).
The mark [12] stands for this setting: dose: 200.0 mg/kg/injection, schedule: Q04DX003 (ip), vehicle: Klucel (hydroxypropylcellulose) (HPC).
[13] abbreviates: dose: 400.0 mg/kg/injection, schedule: Q04DX003 (ip), vehicle: Klucel (hydroxypropylcellulose) (HPC).

Inconclusive results and toxic doses are left out.

For `O=C1C=CC(=O)c2c(O)c(CBr)c(CBr)c(O)c21`, the T/C (dose: 3.12 mg/kg/injection, schedule: Q01DX009 (ip), vehicle: water) is 96 % of control; the T/C (dose: 6.25 mg/kg/injection, schedule: Q01DX009 (ip), vehicle: water) is 118 % of control; the T/C (dose: 6.25 mg/kg/injection, schedule: Q04DX003 (ip), vehicle: water) was 105 % of control; the T/C (dose: 12.5 mg/kg/injection, schedule: Q01DX009 (ip), vehicle: water) was 108 % of control; the T/C (dose: 12.5 mg/kg/injection, schedule: Q04DX003 (ip), vehicle: water) is 105 % of control; the T/C (dose: 25.0 mg/kg/injection, schedule: Q01DX009 (ip), vehicle: water) is 118 % of control. Besides, the T/C is, setting by setting: (dose: 25.0 mg/kg/injection, schedule: Q04DX003 (ip), vehicle: water) 100 % of control; (dose: 50.0 mg/kg/injection, schedule: Q01DX009 (ip), vehicle: water) 112 % of control; (dose: 50.0 mg/kg/injection, schedule: Q04DX003 (ip), vehicle: water) 107 % of control; (dose: 100.0 mg/kg/injection, schedule: Q01DX009 (ip), vehicle: water) 105 % of control.

Take `Cc1nnc(NC2=NCCO2)s1`: the T/C under setting [1] was 86 % of control; the T/C under setting [2] is 90 % of control; the T/C (dose: 200.0 mg/kg/injection, schedule: Q04DX003 (ip), vehicle: saline) is 90 % of control.

For the compound `Cc1c(Cl)cnc(N)c1Cl` (tested in a mixture with another compound), the T/C was 96 % of control under setting [3], 156 % of control under setting [4] and 105 % of control under setting [5].

Take `COc1ccc(OC)c(C(=O)C=C(C(F)(F)F)C(F)(F)F)c1`: the T/C was 109 % of control (dose: 33.0 mg/kg/injection, schedule: Q01DX009 (ip), vehicle: other); 113 % of control (dose: 50.0 mg/kg/injection, schedule: Q01DX009 (ip), vehicle: other); 122 % of control (dose: 75.0 mg/kg/injection, schedule: Q01DX009 (ip), vehicle: other).

Turning to `Nc1ccc(C2=NN(c3ccccc3)CN(c3ccccc3)N2)cc1`, the T/C under setting [6] is 101 % of control; the T/C under setting [7] is 107 % of control; the T/C (dose: 400.0 mg/kg/injection, schedule: Q01DX001 (ip), vehicle: saline with Tween-80) was 102 % of control.

As for `O=C(OC1C2C=CC(C(O)O2)C1c1ccccc1)c1ccc(Cl)cc1` (stereo not given), the T/C under setting [6] is 94 % of control and the T/C under setting [7] is 92 % of control.

Regarding `NC(=O)c1nn(C2OC(CO)C(O)C2O)c2ncnc(N)c12` (stereo not given), the T/C (dose: 12.5 mg/kg/injection, schedule: Q01DX009 (ip), vehicle: Klucel (hydroxypropylcellulose) (HPC)) was 118 % of control.

`O=c1[nH]cnc2nc(Br)[nH]c12`: the T/C is, setting by setting: under setting [3], 100 % of control; under setting [4], 101 % of control; under setting [5], 93 % of control; (dose: 400.0 mg/kg/injection, schedule: Q01DX009 (ip), vehicle: saline with Tween-80) 101 % of control.

Turning to `O=[N+]([O-])c1cc([N+](=O)[O-])c2ccccc2c1NS(=O)(=O)/C=C/c1ccccc1`, the T/C is 104 % of control under setting [8], 112 % of control under setting [3] and 111 % of control under setting [4].

With `O=S(=O)(c1cccc(C(F)(F)F)c1)N1c2ccccc2-n2cccc2C1c1cccnc1` (stereo not given), the T/C is 94 % of control (dose: 50.0 mg/kg/injection, schedule: Q01DX009 (ip), vehicle: Klucel (hydroxypropylcellulose) (HPC)); 103 % of control under setting [9]; 96 % of control under setting [10].

Consider `CCCCOCN1COCC1(C)C`, for which the T/C is, setting by setting: under setting [1], 100 % of control; under setting [2], 105 % of control.

`CC(C)NC(=O)c1ccccc1S(=O)c1ccccc1C(=O)NC(C)C`: the T/C by setting is: under setting [3], 104 % of control; under setting [4], 100 % of control; under setting [5], 108 % of control.

Turning to `O=C(O)C1C=CC(C(=O)O)CC1` (stereo not given), the T/C is 95 % of control (dose: 100.0 mg/kg/injection, schedule: Q04DX003 (ip), vehicle: saline with Tween-80); 93 % of control (dose: 200.0 mg/kg/injection, schedule: Q04DX003 (ip), vehicle: saline with Tween-80); 93 % of control (dose: 400.0 mg/kg/injection, schedule: Q04DX003 (ip), vehicle: saline with Tween-80).

Consider `O=C(/C=N/O)/C=N/O` (tested in a mixture with another compound), for which the T/C (dose: 6.0 mg/kg/injection, schedule: Q01DX009 (ip), vehicle: saline) is 108 % of control; the T/C (dose: 6.0 mg/kg/injection, schedule: Q04DX003 (ip), vehicle: saline) was 100 % of control; the T/C (dose: 12.0 mg/kg/injection, schedule: Q01DX009 (ip), vehicle: saline) is 100 % of control; the T/C (dose: 12.0 mg/kg/injection, schedule: Q04DX003 (ip), vehicle: saline) is 113 % of control; the T/C (dose: 25.0 mg/kg/injection, schedule: Q01DX009 (ip), vehicle: saline) is 100 % of control; the T/C (dose: 25.0 mg/kg/injection, schedule: Q04DX003 (ip), vehicle: saline) was 95 % of control.

As to `CC(=O)C1CCCC23CC(CC12)C(C)(C)C3OC=O` (stereo not given), the T/C under setting [11] was 90 % of control, the T/C under setting [12] was 100 % of control and the T/C under setting [13] was 109 % of control.

For the compound `CC(C)CN1CC(=O)N2CCCN2C(=O)C1`, the T/C runs as follows: (dose: 50.0 mg/kg/injection, schedule: Q01DX005 (ip), vehicle: saline) 94 % of control; (dose: 100.0 mg/kg/injection, schedule: Q01DX005 (ip), vehicle: saline) 108 % of control; (dose: 200.0 mg/kg/injection, schedule: Q01DX005 (ip), vehicle: saline) 103 % of control.

For `C[C@@H]1C[C@@H]([C@@H](CC2CC(=O)NC(=O)C2)OC(=O)CC(=O)c2ccccc2)C(=O)[C@@H](C)C1`, the T/C is, setting by setting: (dose: 11.0 mg/kg/injection, schedule: Q01DX009 (ip), vehicle: saline with Tween-80) 120 % of control; under setting [8], 165 % of control; (dose: 25.0 mg/kg/injection, schedule: Q04DX003 (ip), vehicle: saline with Tween-80) 109 % of control; (dose: 37.5 mg/kg/injection, schedule: Q01DX009 (ip), vehicle: saline with Tween-80) 160 % of control; under setting [3], 95 % of control; (dose: 50.0 mg/kg/injection, schedule: Q04DX003 (ip), vehicle: saline with Tween-80) 118 % of control.

As to `COc1cc(C(C2=C(O)c3ccccc3C(=O)C2=O)C2=C(O)c3ccccc3C(=O)C2=O)cc(Br)c1O`, the T/C by setting is: (dose: 33.0 mg/kg/injection, schedule: Q01DX001 (ip), vehicle: saline) 95 % of control; (dose: 50.0 mg/kg/injection, schedule: Q01DX001 (ip), vehicle: saline) 104 % of control; (dose: 75.0 mg/kg/injection, schedule: Q01DX001 (ip), vehicle: saline) 100 % of control; (dose: 100.0 mg/kg/injection, schedule: Q01DX001 (ip), vehicle: saline) 115 % of control; (dose: 200.0 mg/kg/injection, schedule: Q01DX001 (ip), vehicle: saline) 110 % of control.

Regarding `CCC/[N+]([O-])=C/c1ccc([N+](=O)[O-])o1`, the T/C was 101 % of control under setting [8], 105 % of control under setting [3] and 115 % of control under setting [4].

As for `CC(=O)N1CCCC1=O`, the T/C is, setting by setting: under setting [9], 95 % of control; under setting [11], 100 % of control; under setting [10], 86 % of control; under setting [12], 100 % of control; under setting [13], 100 % of control.

`N#Cc1c(F)c(F)c(C#N)c(F)c1F`: the T/C was 100 % of control (dose: 1.25 mg/kg/injection, schedule: Q01DX009 (ip), vehicle: Klucel (hydroxypropylcellulose) (HPC)); 104 % of control (dose: 2.5 mg/kg/injection, schedule: Q01DX009 (ip), vehicle: Klucel (hydroxypropylcellulose) (HPC)); 108 % of control (dose: 5.0 mg/kg/injection, schedule: Q01DX009 (ip), vehicle: Klucel (hydroxypropylcellulose) (HPC)); 104 % of control (dose: 10.0 mg/kg/injection, schedule: Q01DX009 (ip), vehicle: Klucel (hydroxypropylcellulose) (HPC)).

With `COc1cc2c3c(c4ccc(O)cc4c2cc1OC)[C@@H](O)[C@@H]1CCCN1C3`, the T/C is, setting by setting: (dose: 2.5 mg/kg/injection, schedule: Q01DX009 (ip), vehicle: water) 115 % of control; (dose: 5.0 mg/kg/injection, schedule: Q01DX009 (ip), vehicle: water) 123 % of control.
